This is an account of results in patent US9261498B2, “Biomarker for sensitivity to mTOR inhibitor therapy in kidney cancer” (The Regents of the University of California, priority 2005, dated 2016).

Entries after “also recorded” stand apart in the source; their conditions may differ.

This assay has as its system SN12C-VHLshRNA-HIF-1α mutant and SN12C-VHLshRNA-HIF-2α mutant cells. The assay can be described thus: In vitro growth of VHL knockdown cells expressing prolyl hydroxylation defective HIF mutants. Type of assay: cell-based, human. The following applies: 1 or 10 nM CCI-779, 5 days. Here is the method: FIGS. 4A-4C. Rescue of CCI-779 growth suppression by HIF-1-α and HIF-2-α prolyl hydcroxylase mutants. SN12C-CSCG-VHLshRNA cells stably infected with the prolyl hydroxylation defective cDNA mutants p-Babe-puro-HA-HIF-1α (P564A), HIF-2α (P405A; P531A) or backbone vector were treated with CCI-779 or vehicle and harvested 24 hours later. (a) Lysates were subjected to immunoblotting for HIF-1α, HIF-2α, GLUT-1, CA-IX, p-eIF4G, p-S6 and β-Actin as loading control. (b) SN12C-VHLshRNA, SN12C-VHLshRNA-HIF-1α mutant, SN12C-VHLshRNA-HIF-2α mutant cells (1×10^5) were cultured in 10% serum rich media, in the presence of vehicle, 1 or 10 nM of CCI-779 for 5 days. Cell growth was measured by cell counts (n=3). […]
For in vitro experiments, cells (5×10^4) were plated and treated with 1 and 10 nM CCI-779 (kind gift of J. Gibbons, Wyeth) or vehicle (ethanol). On day 5-post treatment, cells were trypsinized, resuspended in DMEM with 10% FBS and counted using the VI CELL counter (Beckman Coulter), according to the manufacturer's instructions. […] In vivo tumorigenicity was measured by injection of 5×10^5 SN12C-CSCG, ACHN-CSCG, SN12C-CSCG-VHLshRNAi, ACHN-CSCG-VHLshRNAi, SN12C-CSCG-VHLshRNAi-pBABE, SN12C-CSCG-VHLshRNAi-pBABE-HA-HIF-2α (P405A; P531A) cells in 100 μl of Matrigel (Collaborative Biomedical) subcutaneously into the flanks of SCID mice. […]

On to `CO[C@H]1C[C@@H]2CC[C@@H](C)[C@@](O)(O2)C(=O)C(=O)N2CCCC[C@H]2C(=O)O[C@H]([C@H](C)C[C@@H]2CC[C@@H](OC(=O)C(C)(CO)CO)[C@H](OC)C2)CC(=O)[C@H](C)/C=C(\C)[C@@H](O)[C@@H](OC)C(=O)[C@H](C)C[C@H](C)/C=C/C=C/C=C/1C` [CCI-779], for which the “growth inhibitory effect of CCI-779 in cells expressing HIF mutants, in vitro” value is “completely rescued; also recorded: reversal of both the in vitro and in vivo sensitivity”.
